In ChEMBL document CHEMBL5634130, “Exploring the structural-activity relationship of hexahydropyrazino[1,2-d]pyrido[3,2-b][1,4]oxazine derivatives as potent and orally-bioavailable PARP7 inhibitors” (Eur J Med Chem, 2023):

Experiments:
[1] = Oral bioavailability in fasted Beagle dog at 10 mg/kg measured for 24 hrs by LC-MS analysis; format: ADME, organism-based, Canis lupus familiaris; settings: in vivo
[2] = system: MDA-MB-436; assay: Antiproliferative activity against human MDA-MB-436 cells assessed as inhibition of cell viability incubated for 7 days by luminescence based assay; format: functional; settings: MDA-MB-436, 168 h

## O=C(CCOC[C@@H]1CCN1c1cn[nH]c(=O)c1C(F)(F)F)N1CCN2c3ncc(C(F)(F)F)cc3OC[C@@H]2C1
[1]
  bioavailability: 45.2%
[2]
  IC50: > 10 µM
